Data as given in patent US10709720B2, “Human milk oligosaccharides for modulating inflammation” (priority 2010, dated 2020).
≈ marks a conversion by molar mass, not a printed value. Entries after “also recorded” stand apart in the source; their conditions may differ.

Legend:
[1] = test system: respiratory syncytial virus (RSV); test: in vitro inhibition of viral infectivity, co-incubation of virus with HMO (Example 36); format: cell-based; details: virus dose about 500-1,000 units/mL; HMOs added at 1 mg/mL or 10 mg/mL
Experimental: In this Example, the effect of purified human milk oligosaccharides (HMO) on in vitro inhibition of viral infectivity is analyzed.
Samples are prepared by co-incubation of a uniform virus dose of from about 500 units/mL to about 1,000 units/mL of one of three respiratory viruses: (1) respiratory syncytial virus (RSV); (2) human parainfluenza virus (HPIV3); or (3) H1N1 influenza virus with one of the following HMOs: (1) 3′-sialyllactose (3′SL); (2) 6′-sialyllactose (6′SL); (3) 3′-fucosyllactose (3′FL); (4) 2′-fucosyllactose (2′FL); (5) lacto-N-neotetraose (LNnT); or (6) sialic acid (SA). The HMOs are added at concentrations of either 1 mg/mL or 10 mg/mL.

[2] = test system: human parainfluenza virus (HPIV3); test: microbe, parasite or virus in culture; format: cell-based; details: virus dose about 500-1,000 units/mL, HMOs added at 1 mg/mL or 10 mg/mL
H1N1 influenza virus [3] = test: microbe, parasite or virus in culture; format: cell-based
H1N1 influenza virus [4] = test: organism not typed; format: cell-based; details: HMO at 10 mg/mL, MDCK cells, FIG. 1
[5] = test system: interferon-inducible protein 10 (IP-10); test: IP-10 in supernatants of HMO-pretreated, RSV-infected peripheral blood mononuclear cells (Example 39); format: cell-based, human; details: for IP-10 in virus-infected variables: 24 hour pretreatment, both donors, 24 and 48 hours post-infection; for IP-10 level reached compared with uninfected controls / effectiveness at dampening virus-induced inflammation (decrease in IP-10) compared with 3′SL: RSV-infected PBMCs; for reducing inflammation caused by RSV: pretreatment for 24 hours
Experimental: (§1) Specifically, either 3′SL or 6′SL is added, at concentrations of 0.1 mg/mL, 0.2 mg/mL, or 0.5 mg/mL to fresh peripheral blood mononuclear cells and incubated at 37° C. in 5% CO2 to pretreat the cells for approximately 24 hours. LNnT is added, at concentrations of 0.1 mg/mL, 0.2 mg/mL, or 1 mg/mL to fresh peripheral blood mononuclear cells and incubated at 37° C. in 5% CO2 to pretreat the cells for approximately 24 hours. Lactose is included as a carbohydrate control. Matched endotoxin unit concentration controls are included to allow differentiation of ingredient effects from inherent low levels of endotoxin. Some variables are then incubated with RSV at a multiplicity of infection (MOI) of 0.1 for approximately 1 hour at 37° C. in 5% in CO2. Uninfected control variables are incubated with medium for approximately 1 hour at 37° C. in 5% CO2. After approximately one hour, fresh medium alone, or fresh medium containing the appropriate concentration of 3′SL, 6′SL, LNnT, lactose, or endotoxin is added to the appropriate tubes and the cells are incubated for 48 hours at 37° C. in 5% CO2. Supernatants are collected at 24 and 48 hours post-infection.
(§2) Cytokines are measured in supernatants for each variable at 24 and 48 hours to assess the effects of HMOs on the early immune response to RSV. Cytokines are measured using custom Bio-Plex Human cytokine kits from Bio-Rad. Results for interferon-inducible protein 10 (IP-10, also known as CXCL 10) are shown in FIGS. 3 and 4 for 3′SL and 6′SL, and in FIGS. 5 and 6 for LNnT. IP-10 is a CXC chemokine that attracts, binds to and activates the CXCR3 receptor on natural killer cells and memory T cells. IP-10 is expressed by monocytes and a number of other cells, and is induced by interferon. A positive correlation exists between RSV clinical disease severity in children (as measured by: length of hospital stay, fever, and number of days supplemental O2 is required) and serum IP-10. Therefore, a decrease in IP-10 signals a decrease in severity of RSV disease experienced.

interleukin 10 (IL-10) = test: IL-10 in supernatants of HMO-pretreated peripheral blood mononuclear cells with or without RSV (Example 39); format: cell-based, human; details: in the presence or absence of RSV
Experimental: as §1, with “After approximately one hour, fresh medium alone, or fresh medium containing the appropriate concentration of 3′SL, 6′SL, LNnT, lactose, or endotoxin is added to the appropriate tubes and the cells are incubated for 48 hours at 37° C. in 5% CO2. Supernatants are collected at 24 and 48 hours post-infection.” left out
Cytokines are measured in supernatants for each variable at 24 and 48 hours to assess the effects of HMOs on the early immune response to RSV. Cytokines are measured using custom Bio-Plex Human cytokine kits from Bio-Rad. […] A positive correlation exists between RSV clinical disease severity in children (as measured by: length of hospital stay, fever, and number of days supplemental O2 is required) and serum IP-10. […]

[6] = test system: monocyte-derived cytokines; test: monocyte-derived cytokines in supernatants of HMO-treated peripheral blood mononuclear cells (Example 39); format: cell-based, human
Experimental: as §1, §2

Interleukin 8 (IL-8) = test: IL-8 in supernatants of PBMCs treated with 3′SL and/or 6′SL with or without RSV (Example 40); format: cell-based, human; details: in the presence of RSV (MOI 0.1); individual 0.1-0.5 mg/mL, combinations 0.2-1.0 mg/mL total; FIG. 11
Experimental: In this example, the combination of 3′SL and 6′SL to reduce the inflammatory cytokine IL-8 in vitro is analyzed.
Specifically, 3′SL and 6′SL are added individually at concentrations of 0.1 mg/mL, 0.2 mg/mL, or 0.5 mg/mL or in combination (Combo 1=1 part 3′SL to 1 part 6′SL; Combo 2=1 part 3′SL to 2 parts 6′SL), at total concentrations of 0.2 mg/mL, 0.4 mg/mL, or 1.0 mg/mL to fresh peripheral blood mononuclear cells (PBMCs) and incubated at 37° C. in 5% CO2 to pretreat the cells for approximately 24 hours. Lactose is included as a carbohydrate control. Matched endotoxin unit concentration controls are included to allow differentiation of ingredient effects from inherent low levels of endotoxin. After approximately 24 hours, some variables are then incubated with RSV at a multiplicity of infection (MOI) of 0.1 for approximately 1 hour at 37° C. in 5% in CO2. Uninfected control variables are incubated with medium for approximately 1 hour at 37° C. in 5% CO2. […] Cytokines are measured in supernatants for each variable at 24 and 48 hours to assess the effects of the 3′SL and/or the 6′SL on the early immune response to RSV. Cytokines are measured using custom Bio-Plex Human cytokine kits from Bio-Rad. […]

[7] = virus dose about 500-1,000 units/mL, HMOs added at 1 mg/mL or 10 mg/mL
[8] = in the presence or absence of the virus

Row | Compound | IC50 (mg HMO/mL) RSV [1] | IC50 (mg HMO/mL) HPIV3 [2] | IC50 (mg HMO/mL) H1N1 Influenza (H1N1 influenza virus [3]; [7]) | inhibition of virus infectivity (H1N1 influenza virus [4]) | IP-10 in virus-infected variables ([5]; RSV MOI 0.1) | IP-10 level reached compared with uninfected controls [5] | effectiveness at dampening virus-induced inflammation (decrease in IP-10) compared with 3′SL [5] | reducing inflammation caused by RSV [5] | IL-10 concentration (interleukin 10 (IL-10)) | immunomodulation: induces and/or modifies production of monocyte-derived cytokines ([6]; in the absence of the virus) | IL-8 concentration with increasing HMO concentration (Interleukin 8 (IL-8)) | anti-viral activity against H1N1 influenza virus (H1N1 influenza virus [3]; HMO at 1 mg/mL) | RSV-induced IP-10, Donor B ([5]; RSV MOI 0.1, 0.1-0.5 mg/mL, Donor B) | RSV-induced IP-10, Donor E ([5]; RSV MOI 0.1, 0.1-0.5 mg/mL, Donor E) | immunomodulation: induces and/or modifies production of monocyte-derived cytokines [6, 8] | IC50 ([2]; Human respirovirus 3, read-out: IC50 (mg HMO/mL) HPIV3) | IC50 (H1N1 influenza virus [3]; Influenza A virus, H1N1, virus dose about 500-1,000 units/mL, HMOs added at 1 mg/mL or 10 mg/mL, read-out: IC50 (mg HMO/mL) H1N1 Influenza) | inhibition at 10000 µg/mL (H1N1 influenza virus [4]; read-out: inhibition of virus infectivity)
1 | CC(=O)N[C@H]1[C@H]([C@H](O)[C@H](O)CO)O[C@@](OC[C@H]2O[C@@H](O[C@H]3[C@H](O)[C@@H](O)[C@H](O)O[C@@H]3CO)[C@H](O)[C@@H](O)[C@H]2O)(C(=O)O)C[C@@H]1O [6′SL, 6′-sialyllactose] | >10 mg HMO/mL | >10 mg HMO/mL | ~10 mg HMO/mL | approximately 60% | clearly downregulates IP-10 | reduce IP-10 to levels found in uninfected controls | more effective at downregulation of IP-10; also recorded: more effective than 3′SL | effective in reducing inflammation caused by RSV | increases interleukin 10 (IL-10) concentration in a dose-dependent manner | immunomodulatory | increase IL-8 |  |  |  |  |  |  | 
2 | CC(=O)N[C@H]1[C@H]([C@H](O)[C@H](O)CO)O[C@@](O[C@H]2[C@@H](O)[C@@H](CO)O[C@@H](O[C@H]3[C@H](O)[C@@H](O)C(O)O[C@@H]3CO)[C@@H]2O)(C(=O)O)C[C@@H]1O (some centres unmarked) [3′SL, 3′-sialyllactose] | >10 mg HMO/mL | >10 mg HMO/mL | ~5 mg HMO/mL |  | dampen RSV-induced IP-10 |  |  | effective in reducing inflammation caused by RSV |  |  | increase IL-8 | inhibited | not effective | downregulates RSV-induced IP-10 | immunomodulatory |  |  | 
3 | CC(=O)N[C@H]1[C@H]([C@H](O)[C@H](O)CO)OC(O)(C(=O)O)C[C@@H]1O (some centres unmarked) [SA, sialic acid] |  |  |  |  |  |  |  |  |  |  |  |  |  |  |  | ~2000 µg/mL (≈ 6.47 mM) | ~5000 µg/mL (≈ 16.2 mM) | > 90%
4 | CC(=O)N[C@H]1[C@H](O[C@H]2[C@@H](O)[C@@H](CO)O[C@@H](O[C@H]3[C@H](O)[C@@H](O)C(O)O[C@@H]3CO)[C@@H]2O)O[C@H](CO)[C@@H](O[C@@H]2O[C@H](CO)[C@H](O)[C@H](O)[C@H]2O)[C@@H]1O (mixture of isomers) [LNnT, lacto-N-neotetraose] | >10 mg HMO/mL |  | >10 mg HMO/mL |  | clearly downregulates IP-10 | reduce IP-10 to levels found in uninfected controls | more effective than 3′SL | effective in reducing inflammation caused by RSV | increases IL-10 concentration in a dose-dependent manner |  |  |  |  |  | immunomodulatory |  |  | 
